Key:
Type in all cases: in vivo
EMT-6 breast cancer = test: Inhibition of BABLc mice-transplanted tumor of EMT-6 breast cancer; conditions: 9 days
Experimental: (1) Animal BABLc mice, ♀, body weight 17˜21 g
Cell Lines EMT-6 cell lines were mice breast cancer cells, and grew adhering to the wall in RPMI-1640 complete media containing 10% calf serum, 1 mmol/L glutamine, 100 U·ml^−1 penicillin and 100 μg·ml^−1 streptomycin, and were cultured in an incubator at 37° C. under 5% CO2, followed by changing the medium and subculturing every two or three days.
Viable cells were counted by trypan blue staining. Cell suspension was subcutaneously inoculated at the left forelimb armpit of mice at 0.2 ml/animal (containing about 1×10^7 cells), and after tumor grew to 1 cm×1 cm×1 cm, mice were used in experiment. Mice tumors were aseptically stripped, and washed with Hank's solution thrice, to remove blood, fat and necrotic tissues. Tumors were cut to broken pieces of 1 mm×1 mm×1 mm, and washed with Hank's solution twice, to which physiological saline was added at a ratio of (1 g:3 ml), and then ground in a glass homogenizer and filtered by 80-100 mesh sieve to make a suspension of single cell. Viable cells were counted by trypan blue staining.
On the second day after inoculation, a dosage of 0.2 ml·10 g^−1 was administrated to each group by intraperitoneal injection (ip) for successive 9 days, once a day. When the tumor weight in negative group was more than 1.0 g(tumor volume being about 0.5 cm^3), the experiment was stopped, and mice were sacrificed by cervical vertebrae removal and weighed. Tumors were stripped to calculate inhibitory rate.

human brain glioma = test: Inhibition of mice-transplanted human brain glioma; conditions: 15 days, mice
Experimental: Human brain glioma cell lines were obtained from Key Laboratory of Transplant Engineering and Immunology, Ministry of health, West China Hospital, Sichuan University.
(1) Model establishment Mice were divided into groups, 10 mice for each group. The solution of brain glioblastoma cell lines was suitably diluted, and inoculated in cortex of left temporal lobe of mice, respectively.
Administration and intervention 24 h after inoculation, mice in each group were administrated by intraperitoneal injection. […] Each group was administrated for successive 15 days.
Determination of tumor inhibitory rate On the last day, the administration was stopped, and all mice were sacrificed and dissected. Tumor tissues were stripped and weighed. Tumor inhibitory rate %=(The mean tumor weight of control group−The mean tumor weight of drug groups)[The mean tumor weight of control group]×100%.
Statistical method The variance analysis of data was performed using the statistical program software package (SPSS13.0 for Windows), and p<0.05 was considered to be a statistically significant difference.

H22 liver cancer = test: Inhibition of KM mice-transplanted tumor of H22 liver cancer
Experimental: (1) Animal Kunming mice, half male and half female, body weight 16˜27 g.
Cell Lines H22 cell lines were mice liver cancer cells, and were subjected to suspension growth in RPMI-1640 media containing 10% calf serum, 100 U·ml^−1 penicillin, 100 μg·ml^−1 streptomycin, and cultured in an incubator at 37° C. under 5% CO2, followed by changing the medium and subculturing every two or three days.
Cell Culture H22 cells in exponential phase of growth were collected, centrifugated at 1000 rpm for 5 min, and washed twice. Viable cells were counted by trypan blue staining. The cells were quickly inoculated in abdominal cavity of KM mice, and after 7˜10 days, ascites were drawn and subcutaneously inoculated at the left forelimb armpit of mice at 0.2 ml/animal (containing about 2×10^7 cells). When tumor grew to 1 cm×1 cm×1 cm, mice were used in experiment. Mice tumors were aseptically stripped, and washed with Hank's solution thrice, to remove blood, fat and necrotic tissues. Tumors were cut to broken pieces of 1 mm×1 mm×1 mm, and washed with Hank's solution twice, to which physiological saline was added at a ratio of (1 g:3 ml), and then ground in a glass homogenizer and filtered by 80-100 mesh sieve to make a suspension of single cell. Viable cells were counted by trypan blue staining.
On the second day after inoculation, a dosage of 0.2 ml·10 g^−1 was administrated by intravenous injection (iv), once a day. When the average tumor weight in negative group was more than 1.0 g (tumor volume being about 0.5 cm^3), the experiment was stopped, and mice were sacrificed by cervical vertebrae removal and weighed. Tumors were stripped to calculate inhibitory rate.

[1] = 1 mg·kg^−1 intraperitoneal injection
[2] = 5 mg·kg^−1 intraperitoneal injection
[3] = 30 mg·kg^−1 intraperitoneal injection
[4] = 40 mg·kg^−1 intraperitoneal injection
[5] = 70 mg·kg^−1 intraperitoneal injection
[6] = 80 mg·kg^−1 intraperitoneal injection
[7] = 90 mg·kg^−1 intraperitoneal injection
[8] = 100 mg·kg^−1 intraperitoneal injection

O=C(/C=C/c1ccc(O)c(O)c1)O[C@@H]1C[C@](O)(C(=O)O)C[C@@H](O)[C@H]1O [Commercially available chlorogenic acid, chlorogenic acid, reference compound]
Inhibitory rate (EMT-6 breast cancer; 1 mg·kg^−1 ip once a day): 3.13%
Tumor weight (EMT-6 breast cancer; 1 mg·kg^−1 ip once a day): 1.299 ± 0.253 g
Inhibitory rate (EMT-6 breast cancer; 5 mg·kg^−1 ip once a day): 4.18%
Tumor weight (EMT-6 breast cancer; 5 mg·kg^−1 ip once a day): 1.285 ± 0.324 g
Inhibitory rate (EMT-6 breast cancer; 10 mg·kg^−1 ip once a day): 5.00%
Tumor weight (EMT-6 breast cancer; 10 mg·kg^−1 ip once a day): 1.274 ± 0.854 g
Inhibitory rate (EMT-6 breast cancer; 20 mg·kg^−1 ip once a day): 10.44%
Inhibitory rate (EMT-6 breast cancer; 30 mg·kg^−1 ip once a day): 11.63%
Inhibitory rate (EMT-6 breast cancer; 40 mg·kg^−1 ip once a day): 16.11%
Inhibitory rate (EMT-6 breast cancer; 50 mg·kg^−1 ip once a day): 16.85%
Inhibitory rate (EMT-6 breast cancer; 60 mg·kg^−1 ip once a day): 24.76%
Tumor weight (EMT-6 breast cancer; 60 mg·kg^−1 ip once a day): 1.009 ± 0.123 g
Inhibitory rate (EMT-6 breast cancer; 70 mg·kg^−1 ip once a day): 6.49%
Tumor weight (EMT-6 breast cancer; 70 mg·kg^−1 ip once a day): 1.254 ± 0.514 g
Inhibitory rate (EMT-6 breast cancer; 80 mg·kg^−1 ip once a day): 4.62%
Tumor weight (EMT-6 breast cancer; 80 mg·kg^−1 ip once a day): 1.279 ± 0143 g
Inhibitory rate (EMT-6 breast cancer; 90 mg·kg^−1 ip once a day): 3.21%
Tumor weight (EMT-6 breast cancer; 90 mg·kg^−1 ip once a day): 1.298 ± 0.423 g
Inhibitory rate (EMT-6 breast cancer; 100 mg·kg^−1 ip once a day): 2.16%
Tumor weight (EMT-6 breast cancer; 100 mg·kg^−1 ip once a day): 1.312 ± 0.087 g
Inhibitmy rate (human brain glioma; [1]): 9.10%
Tumor weight (human brain glioma; [1]): 1.319 ± 0.245 g
Inhibitmy rate (human brain glioma; [2]): 11.16%
Tumor weight (human brain glioma; [2]): 1.289 ± 0.289 g
Inhibitmy rate (human brain glioma; 10 mg·kg^−1 intraperitoneal injection): 19.09%
Inhibitmy rate (human brain glioma; 20 mg·kg^−1 intraperitoneal injection): 24.12%
Inhibitmy rate (human brain glioma; [3]): 30.74%
Tumor weight (human brain glioma; [3]): 1.005 ± 0.225 g
Inhibitmy rate (human brain glioma; [4]): 31.91%
Tumor weight (human brain glioma; [4]): 0.988 ± 0.025 g
Inhibitmy rate (human brain glioma; 50 mg·kg^−1 intraperitoneal injection): 23.85%
Inhibitmy rate (human brain glioma; 60 mg·kg^−1 intraperitoneal injection): 22.47%
Inhibitmy rate (human brain glioma; [5]): 15.58%
Tumor weight (human brain glioma; [5]): 1.225 ± 0.534 g
Inhibitmy rate (human brain glioma; [6]): 12.13%
Tumor weight (human brain glioma; [6]): 1.275 ± 0.043 g
Inhibitmy rate (human brain glioma; [7]): 11.30%
Tumor weight (human brain glioma; [7]): 1.287 ± 0.323 g
Inhibitmy rate (human brain glioma; [8]): 7.79%
Tumor weight (human brain glioma; [8]): 1.338 ± 0.187 g
Inhibitory rate (H22 liver cancer; 1 mg·kg^−1 iv once a day): 5.1%
Tumor weight (H22 liver cancer; 1 mg·kg^−1 iv once a day): 2.228 ± 0.538 g
Inhibitory rate (H22 liver cancer; 5 mg·kg^−1 iv once a day): 17.4%
Tumor weight (H22 liver cancer; 5 mg·kg^−1 iv once a day): 1.939 ± 0.357 g
Inhibitory rate (H22 liver cancer; 10 mg·kg^−1 iv once a day, listed as Commercially availaavailable chlorogenic): 32.6%
Inhibitory rate (H22 liver cancer; 20 mg·kg^−1 iv once a day, listed as Commercially availaavailable chlorogenic): 31.8%
Inhibitory rate (H22 liver cancer; 30 mg·kg^−1 iv once a day): 31.9%
Inhibitory rate (H22 liver cancer; 40 mg·kg^−1 iv once a day): 28.1%
Inhibitory rate (H22 liver cancer; 50 mg·kg^−1 iv once a day): 23.4%
Tumor weight (H22 liver cancer; 50 mg·kg^−1 iv once a day): 1.799 ± 0.462 g
Inhibitory rate (H22 liver cancer; 60 mg·kg^−1 iv once a day): 21.3%
Tumor weight (H22 liver cancer; 60 mg·kg^−1 iv once a day): 1.848 ± 0.741 g
Inhibitory rate (H22 liver cancer; 70 mg·kg^−1 iv once a day): 14.6%
Tumor weight (H22 liver cancer; 70 mg·kg^−1 iv once a day): 2.005 ± 0.345 g
Inhibitory rate (H22 liver cancer; 80 mg·kg^−1 iv once a day): 13.7%
Tumor weight (H22 liver cancer; 80 mg·kg^−1 iv once a day): 2.026 ± 0.611 g
Inhibitory rate (H22 liver cancer; 90 mg·kg^−1 iv once a day): 9.8%
Tumor weight (H22 liver cancer; 90 mg·kg^−1 iv once a day): 2.118 ± 0.557 g
Inhibitory rate (H22 liver cancer; 100 mg·kg^−1 iv once a day): 7.2%
Tumor weight (H22 liver cancer; 100 mg·kg^−1 iv once a day): 2.179 ± 0.341 g

— patent publication US10314806B2 (SICHUAN JIUZHANG BIOLOGICAL SCIENCE AND TECHNOLOGY CO., LTD., priority 2014, dated 2019)
